{
  "source": "patent US20120202806A1",
  "about": "“Novel Pyrimidine- And Triazine-Hepcidine Antagonists” (VIFOR (INTERNATIONAL) AG, priority 2009, published 2012)",
  "biological_target": "T1, human ferroportin (Fpn) (Homo sapiens, UniProt Q9NP59)",
  "T1 construct": "expressed in transfected cells",
  "T1 sequence (Q9NP59 1-571)": "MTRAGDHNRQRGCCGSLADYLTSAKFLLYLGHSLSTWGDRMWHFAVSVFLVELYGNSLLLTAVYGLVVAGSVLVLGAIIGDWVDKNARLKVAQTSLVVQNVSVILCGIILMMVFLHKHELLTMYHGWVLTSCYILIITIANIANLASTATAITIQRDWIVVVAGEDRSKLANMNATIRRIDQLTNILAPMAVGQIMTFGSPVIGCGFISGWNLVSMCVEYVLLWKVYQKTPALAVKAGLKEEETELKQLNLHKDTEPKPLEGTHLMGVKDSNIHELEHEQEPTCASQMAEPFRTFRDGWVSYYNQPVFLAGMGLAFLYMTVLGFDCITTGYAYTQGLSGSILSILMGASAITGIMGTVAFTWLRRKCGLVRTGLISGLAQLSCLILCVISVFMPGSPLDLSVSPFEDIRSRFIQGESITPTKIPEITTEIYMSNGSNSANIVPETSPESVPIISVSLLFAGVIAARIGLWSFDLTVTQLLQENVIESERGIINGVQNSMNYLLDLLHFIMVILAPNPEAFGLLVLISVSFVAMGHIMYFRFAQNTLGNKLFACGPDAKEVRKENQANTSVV",
  "test": "Ferroportin internalisation assay (inhibition of hepcidin-induced internalisation of Fpn in MDCK-FPN-HaloTag cells)",
  "type": "cell-based",
  "conditions": "100 nM hepcidin; for inhibition at 10 µM: 10 μM substance, inhibition of Fpn internalisation, read-out: I [%] (Median Inhibition [%] at 10 μM substance conc.); for pIC50: overnight incubation, 11 concentrations 0.04 to 40 μM",
  "method": "The antagonistic effect against hepcidin of the pyrimidine and triazine compounds of the present invention was determined by means of the ferroportin internalisation assay described below.\nLow molecular weight organic compounds which counteract the biological effects of hepcidin on its receptor, the iron exporter ferroportin (Fpn) were identified on the basis of their ability to inhibit hepcidin-induced internalisation of Fpn in living cells. A stable cell line (Madin-Darby Canine Kidney, MDCK) was produced for this purpose to express constitutively human ferroportin which is fused recombinantly with a fluorescent reporter protein (HaloTag®, Promega Corp.) at its C terminus. The internalisation of Fpn was monitored by marking these cells with fluorescent ligands (HaloTag® TMR, tetramethylrhodamine) which attach themselves covalently to the HaloTag reporter gene fused with the Fpn. […] Optimised image analysis algorithms were used to detect the cell surface and to quantify the corresponding membrane fluorescence associated with the Fpn-HaloTag fusion protein.",
  "note": "pIC50: −log10 of the molar value.",
  "data": [
    {"smiles": "COc1cnc(-c2ccccn2)nc1NC(C)C", "note": "[Example 1, Isopropyl-(5-methoxy-2-pyridin-2-yl-pyrimidin-4-yl)-amine]", "values": [
      {"measurement": "inhibition at 10 µM", "result": "> 50", "unit": "%"}
    ]},
    {"smiles": "Cc1nc(-c2ccccn2)nc(NCCNc2cc(C(F)(F)F)ccn2)c1Cl", "note": "[Example 2, N-(5-Chloro-6-methyl-2-pyridin-2-yl-pyrimidin-4-yl)-N′-(4-trifluoromethyl-pyridin-2-yl)-ethane-1,2-diamine]", "values": [
      {"measurement": "inhibition at 10 µM", "result": "< 50", "unit": "%"}
    ]},
    {"smiles": "Nc1nc(-c2ccccn2)nc(N)c1Cc1ccccc1F", "note": "[Example 3, 5-(2-Fluoro-benzyl)-2-pyridin-2-yl-pyrimidine-4,6-diamine]", "values": [
      {"measurement": "inhibition at 10 µM", "result": "< 50", "unit": "%"}
    ]},
    {"smiles": "Cc1nc(-c2ccccn2)nc(NCCNc2ccc(C(F)(F)F)cn2)c1Cl", "note": "[Example 4, N-(5-Chloro-6-methyl-2-pyridin-2-yl-pyrimidin-4-yl)-N′-(5-trifluoromethyl-pyridin-2-yl)-ethane-1,2-diamine]", "values": [
      {"measurement": "inhibition at 10 µM", "result": "< 50", "unit": "%"}
    ]},
    {"smiles": "Oc1cccc(/C=N/Nc2cc(N3CCOCC3)nc(N3CCOCC3)n2)c1", "note": "[Example 5, 3-[(2,6-Dimorpholin-4-yl-pyrimidin-4-yl)-hydrazonomethyl]-phenol]", "values": [
      {"measurement": "inhibition at 10 µM", "result": "> 50", "unit": "%"}
    ]},
    {"smiles": "Cc1nc(N/N=C/c2ccc(O)cc2O)cc(N2CCOCC2)n1", "note": "[Example 6, 4-[(2-Methyl-6-morpholin-4-yl-pyrimidin-4-yl)-hydrazonomethyl]-benzene-1,3-diol]", "values": [
      {"measurement": "inhibition at 10 µM", "result": "> 50", "unit": "%"}
    ]},
    {"smiles": "Oc1ccccc1/C=N/Nc1cc(N2CCOCC2)nc(N2CCOCC2)n1", "note": "[Example 7, 2-[(2,6-Dimorpholin-4-yl-pyrimidin-4-yl)-hydrazonomethyl]-phenol]", "values": [
      {"measurement": "inhibition at 10 µM", "result": "> 50", "unit": "%"}
    ]},
    {"smiles": "C/C(=N\\Nc1cc(N2CCOCC2)nc(C)n1)c1ccc(F)cc1", "note": "[Example 8, N-[1-(4-Fluoro-phenyl)-ethylidene]-N′-(2-methyl-6-morpholin-4-yl-pyrimidin-4-yl)-hydrazine]", "values": [
      {"measurement": "inhibition at 10 µM", "result": "< 50", "unit": "%"}
    ]},
    {"smiles": "COc1ccc(O)c(/C=N/Nc2nc(N3CCOCC3)nc(N3CCOCC3)n2)c1", "note": "[Example 9, 2-[(4,6-Dimorpholin-4-yl-[1,3,5]triazin-2-yl)-hydrazonomethyl]-4-methoxy-phenol]", "values": [
      {"measurement": "inhibition at 10 µM", "result": "> 50", "unit": "%"}
    ]},
    {"smiles": "c1ccc(N(c2ccccc2)c2nc(N3CCOCC3)nc(-n3ccnc3)n2)cc1", "note": "[Example 10, (4-Imidazol-1-yl-6-morpholin-4-yl-[1,3,5]triazin-2-yl)-diphenyl-amine]", "values": [
      {"measurement": "inhibition at 10 µM", "result": "> 50", "unit": "%"}
    ]},
    {"smiles": "CN(c1ccccc1)c1nc(N2CCOCC2)nc(-n2ccnc2)n1", "note": "[Example 11, (4-Imidazol-1-yl-6-morpholin-4-yl-[1,3,5]triazin-2-yl)-methyl-phenyl-amine]", "values": [
      {"measurement": "inhibition at 10 µM", "result": "< 50", "unit": "%"}
    ]},
    {"smiles": "Cc1ccc2cc(Nc3nc(N4CCOCC4)nc(N4CCOCC4)n3)ccc2n1", "note": "[Example 12, (4,6-Dimorpholin-4-yl-[1,3,5]triazin-2-yl)-(2-methyl-quinolin-6-yl)-amine]", "values": [
      {"measurement": "inhibition at 10 µM", "result": "< 50", "unit": "%"}
    ]},
    {"smiles": "COc1cnc(-c2ccccn2)nc1N(C)Cc1ccccc1", "note": "[Example 24, Benzyl-(5-methoxy-2-pyridin-2-yl-pyrimidin-4-yl)-methyl-amine]", "values": [
      {"measurement": "pIC50", "result": "< 4.30"}
    ]},
    {"smiles": "COc1cnc(CN)nc1NC(C)C", "note": "[Example 50, (2-Aminomethyl-5-methoxy-pyrimidin-4-yl)-isopropyl-amine]", "values": [
      {"measurement": "pIC50", "result": "> 4.30"}
    ]}
  ]
}
